Data taken from US20240382494A1, “THERAPEUTIC COMPOUNDS” (priority 2023, published 2024).

Key:
[1] = Cytotoxicity assay in Vero E6 cells (neutral red uptake); format: cell-based; conditions: African green monkey; Vero E6 cells, 2 days at 37° C., neutral red uptake; read-out: Vero CC50
Procedure: Briefly, 80.000 cells/ml of the tested cell lines were dispensed into 96-well cell culture plates at 100 μl per well Twenty-four hours later, the growth medium was removed and washed with 150 μl of PBS buffer. Two hundred microliters of fresh serum-free medium containing serial diluted compounds was added to each well. After incubating for 2 days at 37° C., the medium was removed and replaced with 100 μl of DMEM medium containing neutral red (40 μg/ml) and incubated for 2 to 4 hours at 37° C. The amount of neutral red taken up was determined by measuring the absorbance at 540 nm using a Multiskan FC Microplate Photometer (Thermo Fisher Scientific) The CC50 values were calculated from best-fit dose-response curves with variable slope in Prism 8.

SARS-CoV-2 PLpro = SARS-CoV-2 PLpro (Severe acute respiratory syndrome coronavirus 2, UniProt P0DTD1); experiment: FRET-based PLpro enzymatic assay; format: biochemical; conditions: 200 nM PLpro, 10 μM FRET substrate, 30 min preincubation at 30° C.; read-out: IC50
Procedure: The SARS-CoV-2 PL^pro enzymatic assays were carried out as follows. The assay was assembled in 96-well plates with 100 μl of 200 nM PL^Pro protein in PL^Pro reaction buffer [50 mM Hepes (pH 7.5), 0.01% Triton X-100, and 5 mM DTT]. Then, 1 μl of testing compound at various concentrations was added to each well and incubated at 30° C. for 30 minutes. The enzymatic reaction was initiated by adding 1 μl of 1 mM FRET substrate (the final substrate concentration is 10 μM). The reaction was monitored in a Cytation 5 image reader with filters for excitation at 360/40 nm and emission at 460/40 nm at 30° C. for 1 hour. The initial velocity of the enzymatic reaction with and without testing compounds was calculated by linear regression for the first 15 minutes of the kinetic progress curve. The IC50 values were calculated by plotting the initial velocity against various concentrations of testing compounds with a dose-response function in Prism 8 software.

SMILES	CC50 at 2 days [1] [µM]	IC50 (SARS-CoV-2 PLpro) [µM]
Cc1ccc(OCCN(C)C)cc1C(=O)N[C@H](C)c1cc(-c2cnn(C(F)(F)F)c2)nc2ccccc12 [Example 63, (R)-5-(2-(dimethylamino)ethoxy)-2-methyl-N-(1-(2-(1-(trifluoro-methyl)-1H-pyrazol-4-yl)quinolin-4-yl)ethyl)benzamide]	17.7 ± 2.04	< 0.5
Cc1ccc(N2CCN(C)CC2)cc1C(=O)N[C@H](C)c1cc(-c2ccn(C)n2)nc2ccccc12 [Example 97, (R)-2-methyl-N-(1-(2-(1-methyl-1H-pyrazol-3-yl)quinolin-4-yl)ethyl)-5-(4-methylpiperazin-1-yl)benzamide]	30.7 ± 2.45	< 0.5
Cc1ccc(OC[C@@H]2CCCN2C)cc1C(=O)N[C@H](C)c1cc(-c2cnn(C)c2)nc2ccccc12 [Example 84, 2-methyl-N—((R)-1-(2-(1-methyl-1H-pyrazol-4-yl)quinolin-4-yl)ethyl)-5-(((S)-1-methylpyrrolidin-2-yl)methoxy)benzamide]	103 ± 24.4	< 0.5
COCCn1cc(-c2cc([C@@H](C)NC(=O)c3cc(OCCN(C)C)ccc3C)c3ccccc3n2)cn1 [Example 6, (R)-5-(2-(dimethylamino)ethoxy)-N-(1-(2-(1-(2-methoxyethyl)-1H-pyrazol-4-yl)quinolin-4-yl)ethyl)-2-methylbenzamide]	200 ± 86.4	< 0.5
Cc1ccc(N(C)C2CN(C)C2)cc1C(=O)N[C@H](C)c1cc(-c2cnn(C)c2)nc2ccccc12 [Example 88, (R)-2-methyl-5-(methyl(1-methylazetidin-3-yl)amino)-N-(1-(2-(1-methyl-1H-pyrazol-4-yl)quinolin-4-yl)ethyl)benzamide]	97.4 ± 6.51	1 to 5
Cc1ccc(OCCN(C)C)cc1C(=O)N[C@H](C)c1cc(-c2ccc3cn[nH]c3c2)nc2ccccc12 [Example 61, (R)—N-(1-(2-(1H-indazol-6-yl)quinolin-4-yl)ethyl)-5-(2-(dimethylamino)ethoxy)-2-methylbenzamide]	25.7 ± 2.09	> 5
Cc1ccc(OCCN(C)C)cc1C(=O)N[C@H](C)c1cc(-c2cnn(CC(=O)N3CCCC3)c2)nc2ccccc12 [Example 69, (R)-5-(2-(dimethylamino)ethoxy)-2-methyl-N-(1-(2-(1-(2-oxo-2-(pyrrolidin-1-yl)ethyl)-1H-pyrazol-4-yl)quinolin-4-yl)ethyl)benzamide]	26.4 ± 4.5	< 0.5
Cc1ccc(N2CCN(C)C3(CC3)C2)cc1C(=O)N[C@H](C)c1cc(-c2cnn(C)c2)nc2ccccc12 [Example 80, (R)-2-methyl-N-(1-(2-(1-methyl-1H-pyrazol-4-yl)quinolin-4-yl)ethyl)-5-(4-methyl-4,7-diazaspiro[2.5]octan-7-yl)benzamide]	49.7 ± 4.65	< 0.5
CCn1ccc(-c2cc([C@@H](C)NC(=O)c3cc(OC[C@H]4CCCN4C)ccc3C)c3ccccc3n2)n1 [Example 110, N—((R)-1-(2-(1-ethyl-1H-pyrazol-3-yl)quinolin-4-yl)ethyl)-2-methyl-5-(((R)-1-methylpyrrolidin-2-yl)methoxy)benzamide]	46.3 ± 13.9	< 0.5
Cc1ccc(OCCN(C)C)cc1C(=O)N[C@H](C)c1cc(-c2ccnn2C)nc2ccccc12 [Example 13, (R)-5-(2-(dimethylamino)ethoxy)-2-methyl-N-(1-(2-(1-methyl-1H-pyrazol-5-yl)quinolin-4-yl)ethyl)benzamide]	60 ± 8.43	< 0.5
Cc1ccc(N2CC[C@@H](N(C)C)C2)cc1C(=O)N[C@H](C)c1cc(-c2cnn(C)c2)nc2ccccc12 [Example 96, 5-((R)-3-(dimethylamino)pyrrolidin-1-yl)-2-methyl-N—((R)-1-(2-(1-methyl-1H-pyrazol-4-yl)quinolin-4-yl)ethyl)benzamide]	28.8	< 0.5
Cc1ccc(OCCN(C)C)cc1C(=O)N[C@H](C)c1cc(-c2cnn(C(C)(C)C)c2)nc2ccccc12 [Example 65, (R)—N-(1-(2-(1-(tert-butyl)-1H-pyrazol-4-yl)quinolin-4-yl)ethyl)-5-(2-(dimethyl-amino)ethoxy)-2-methylbenzamide]	19.1 ± 2.75	< 0.5
Cc1ccc(OCCN(C)C)cc1C(=O)N[C@H](C)c1cc(-c2cnc3[nH]ncc3c2)nc2ccccc12 [Example 49, (R)—N-(1-(2-(1H-pyrazolo[3,4-b]pyridin-5-yl)quinolin-4-yl)-ethyl)-5-(2-(dimethylamino)-ethoxy)-2-methylbenzamide]	> 250	–
CCn1ccc(-c2cc([C@@H](C)NC(=O)c3cc(OC[C@@H]4CCCN4C)ccc3C)c3ccccc3n2)n1 [Example 109, N—((R)-1-(2-(1-ethyl-1H-pyrazol-3-yl)quinolin-4-yl)ethyl)-2-methyl-5-(((S)-1-methylpyrrolidin-2-yl)methoxy)benzamide]	27 ± 1.66	–
Cc1ccc(N2C[C@H]3CN(C)C[C@H]3C2)cc1C(=O)NC1(c2cc(-c3cnn(C)c3)nc3ccccc23)CC1 [Example 113, 2-methyl-N-(1-(2-(1-methyl-1H-pyrazol-4-yl)quinolin-4-yl)cyclopropyl)-5-((3aR,6aS)-5-methylhexahydropyrrolo[3,4-c]pyrrol-2(1H)-yl)benzamide]	56.1	–
Cc1ccc(OCCN(C)C)cc1C(=O)N[C@H](C)c1cc(-c2cn[nH]c2)nc2ccccc12 [Example 23, (R)—N-(1-(2-(1H-pyrazol-4-yl)quinolin-4-yl)ethyl)-5-(2-(dimethylamino)ethoxy)-2-methylbenzamide]	–	< 0.5
COc1ncc(-c2cc([C@@H](C)NC(=O)c3cc(OCCN(C)C)ccc3C)c3ccccc3n2)cn1 [Example 62, (R)-5-(2-(dimethylamino)ethoxy)-N-(1-(2-(2-methoxy-pyrimidin-5-yl)quinolin-4-yl)ethyl)-2-methylbenzamide]	–	> 5
Cc1ccc(OCCN(C)C)cc1C(=O)N[C@@H](C)c1cc(-c2ccco2)nc2ccccc12 [Example 17, (S)-5-(2-(dimethylamino)ethoxy)-N-(1-(2-(furan-2-yl)quinolin-4-yl)ethyl)-2-methylbenzamide]	–	< 0.5
Cc1ccc(OCCN(C)C)cc1C(=O)N[C@H](C)c1cc(-c2cnn(C)c2)nc2ccccc12 [Example 7, (R)-5-(2-(dimethylamino)ethoxy)-2-methyl-N-(1-(2-(1-methyl-1H-pyrazol-4-yl)quinolin-4-yl)ethyl)benzamide]	–	< 0.5
Cc1ccc(N2CCN(C)[C@H](C)C2)cc1C(=O)N[C@H](C)c1cc(-c2cnn(C)c2)nc2ccccc12 [Example 79, 5-((R)-3,4-dimethylpiperazin-1-yl)-2-methyl-N—((R)-1-(2-(1-methyl-1H-pyrazol-4-yl)quinolin-4-yl)ethyl)benzamide]	–	< 0.5
Cc1ccc(OCCN(C)C)cc1C(=O)N[C@H](C)c1cc(-n2ccnc2)nc2ccccc12 [Example 46, (R)—N-(1-(2-(1H-imidazol-1-yl)quinolin-4-yl)ethyl)-5-(2-(dimethylamino)ethoxy)-2-methylbenzamide]	–	< 0.5
Cc1ccc(OC[C@@H]2CCN2C)cc1C(=O)N[C@H](C)c1cc(-c2cnn(C)c2)nc2ccccc12 [Example 75, 2-methyl-N—((R)-1-(2-(1-methyl-1H-pyrazol-4-yl)quinolin-4-yl)ethyl)-5-(((S)-1-methylazetidin-2-yl)methoxy)benzamide]	–	< 0.5
Cc1ccc(N2C[C@H]3CN(C)C[C@H]3C2)cc1C(=O)N[C@H](C)c1cc(-c2cnn(C)c2)nc2ccccc12 [Example 81, 2-methyl-N—((R)-1-(2-(1-methyl-1H-pyrazol-4-yl)quinolin-4-yl)ethyl)-5-((3aR,6aS)-5-methylhexahydropyrrolo[3,4-c]pyrrol-2(1H)-yl)benzamide]	–	< 0.5
Cc1ccc(OCCN(C)C)cc1C(=O)N[C@H](C)c1cc(-c2ccc(CN3CCOCC3)o2)nc2ccccc12 [Example 72, (R)-5-(2-(dimethylamino)ethoxy)-2-methyl-N-(1-(2-(5-(morpholinomethyl)furan-2-yl)quinolin-4-yl)ethyl)benzamide]	–	< 0.5
Cc1ccc(OC[C@H]2CCCN2C)cc1C(=O)N[C@H](C)c1cc(-c2cnn(C)c2)nc2ccccc12 [Example 83, 2-methyl-N—((R)-1-(2-(1-methyl-1H-pyrazol-4-yl)quinolin-4-yl)ethyl)-5-(((R)-1-methylpyrrolidin-2-yl)methoxy)benzamide]	–	< 0.5
CCn1ccc(-c2cc([C@@H](C)NC(=O)c3cc(OC[C@@H]4CCN4C)ccc3C)c3ccccc3n2)n1 [Example 105, N—((R)-1-(2-(1-ethyl-1H-pyrazol-3-yl)quinolin-4-yl)ethyl)-2-methyl-5-(((S)-1-methyl-azetidin-2-yl)methoxy)benzamide]	–	< 0.5
Cc1ccc(N2CCN(C)CC2)cc1C(=O)NC1(c2cc(-c3cnn(C)c3)nc3ccccc23)CC1 [Example 111, 2-methyl-N-(1-(2-(1-methyl-1H-pyrazol-4-yl)quinolin-4-yl)cyclopropyl)-5-(4-methylpiperazin-1-yl)benzamide]	> 150	–
